In patent US20150094260A1, “BUFFERED OPHTHALMIC COMPOSITIONS AND METHODS OF USE THEREOF” (ARAVA BIO-TECH LTD., priority 2010, published 2015):
Entries after “also recorded” stand apart in the source; their conditions may differ. Ends that are not written are not given here. * marks the point of attachment. Myristoyl = CCCCCCCCCCCCCC(=O)*

Assays:
corneal wound in mice = test: Alkali burning of mouse corneas with Silver Nitrate applicators; assay type: in vivo; conditions: 1 μg/ml; for wound healing compared to control (Formula 1): 3 times daily for 3 or 7 days; for neutrophils recruitment to the corneal wound gap / pathological angiogenesis in corneal wound area / pathological corneal swelling / corneal re-epithelialization (wounds with full epidermal closure at 7 days post wounding) / inflammatory cells (lymphocytes) infiltration into the wound area: three daily instillations, Formula 1 as control; for neutrophils recruitment to the corneal wound gap / pathological angiogenesis in corneal wound area / pathological corneal swelling / inflammatory cells (lymphocytes) infiltration into the wound area: 3 days; for neutrophils recruitment to the corneal wound gap: FIG. 32; for pathological angiogenesis in corneal wound area: FIG. 33; for pathological corneal swelling: FIG. 34; for corneal re-epithelialization (wounds with full epidermal closure at 7 days post wounding): FIG. 30; for inflammatory cells (lymphocytes) infiltration into the wound area: FIG. 31
Experimental: Mice were subjected to chemical alkali burn wounding (using Silver Nitrate applicators for 10 seconds). Eyes were treated by three daily ocular instillations of treatments during 7 successive days with DAP-1 1 μg/ml, DIP-1 1 μg/ml and EPIP-2 1 μg/ml or with Formula 1 as control. Percentage of wounds achieved full epidermal closure at 7 days post wounding.
FIG. 31 is a histogram showing that DAP-1 1 μg/ml and DIP-1 1 μg/ml reduce lymphocytes infiltration in corneal wound gap in mice. Mice were subjected to chemical alkali burn wounding (using Silver Nitrate applicators for 10 seconds). Eyes were treated by three daily ocular instillations of treatments during 3 successive days with DAP-1 1 μg/ml, DIP-1 1 μg/ml and EPIP-2 1 μg/ml or with Formula 1 as control. Histological H&E staining of the corneas wounded area was performed and lymphocytes infiltration was arbitrarily assessed.
FIG. 32 is a histogram showing that DAP-1 1 μg/ml and EPIP-2 1 μg/ml decrease neutrophils recruitment to the corneal wound gap in mice. Mice were subjected to chemical alkali burn wounding (using Silver Nitrate applicators for 10 seconds). Eyes were treated by three daily ocular instillations of treatments during 3 successive days with DAP-1 1 μg/ml, DIP-1 1 μg/ml and EPIP-2 1 μg/ml or with Formula 1 as control. Histological sections of […] were stained with specific neutrophil staining kit (according to manufacturer). Neutrophils were counted per fixed field ×200 and represented by arbitrary units.
Mice were subjected to chemical alkali burn wounding (using Silver Nitrate applicators for 10 seconds). Eyes were treated by three daily ocular instillations of treatments during 3 successive days with DAP-1 1 μg/ml, DIP-1 1 μg/ml and EPIP-2 1 μg/ml or with Formula 1 as control. Histological H&E staining of the corneas wounded area has been performed. Blood vessels in entire corneal area were assessed and the results are represented graphically in objective arbitrary units.
FIG. 34 is a histogram showing that DIP-1 1 μg/ml and EPIP-2 1 μg/ml decrease pathological swelling of wounded cornea in mice. Mice were subjected to chemical alkali burn wounding (using Silver Nitrate applicators for 10 seconds). Eyes were treated by three daily ocular instillations of treatments during 3 successive days with DAP-1 1 μg/ml, DIP-1 1 μg/ml and EPIP-2 1 μg/ml or with Formula 1 as control. Histological H&E staining of the corneas wounded area has been performed and corneal swelling was objectively assessed. The results are presented in arbitrary units. […]
In another experiment, Alkali burning of corneas was performed on anaesthetized mice using Silver Nitrate applicators (75% Silver nitrate, 25% Potassium nitrate, Grafco, GFCO Inc.) for 10 seconds. The eyes were irrigated immediately with 5 ml sterile saline. Eyes were treated 3 times daily for 3 or 7 days with DAP-1 1 μg/ml, DIP-1 1 μg/ml and EPIP-2 1 μg/ml or Formula 1 as control.

[1] = test system: ICAM-1 expression on endothelial cells and keratinocytes; macrophages, neutrophiles and T-cells at inflammation site; test: Anti-inflammatory effect of MPDY-1 in various in-vitro, ex-vivo and in-vivo models
Description: This example discusses experiments showing the anti-inflammatory effect of MPDY-1.

[2] = test system: rabbit eyes subject to mechanical corneal wounding; test: Mechanical corneal wounding in rabbit eyes, corneal erosion area by fluorescein staining; assay type: in vivo
Experimental: Mechanical Corneal Ulcer Formation: A 6 mm corneal trephine (Grieshaber, Switzerland), preset for 50 micrometer in depth and a miniblade were used under a surgical microscope, to perform a uniform central corneal epithelial erosions, 6 mm in diameter and 50 micrometer in depth.
Rabbits were subjected to mechanical corneal wounding following the protocol discussed above. Eyes were treated by two daily ocular instillations of treatments during 3 successive days. Fluorescein staining was used to measure the corneal erosion area at twelve hours intervals starting 24 hrs post wounding and up to 72 hrs.
In addition to the time to heal parameter which is routinely assessed in wound healing studies, several publications established the importance of a new parameter, 50% reduction in wound size to serve as a robust predictor of complete wound closure. […] Results were therefore analyzed as percentage of eyes with 50% closure or higher at 24 hr post wounding (FIG. 2).
Rabbits were subjected to mechanical corneal wounding as discussed in Example 1. Eyes were treated by two daily ocular instillations of treatments during 3 successive days. Fluorescein staining was used to measure the corneal erosion area at six hours intervals.
Additional experiments were conducted using varying dosages of active agent. Rabbits were subjected to mechanical corneal wounding as described above. Eyes were treated by two daily ocular instillations of treatments during 3 successive days with 0.1 or 0.5 μg/eye/treatment of MPDY-1 alone in HOB-10 (referred to as HO/05/09) or in BSS or in combination with insulin 0.1-0.5 μg/eye/treatment. Rabbits received a total of daily dose from 0.1 μg (1 μg/ml) and up to 2 μg (20 μg/ml). Fluorescein staining was used to measure the corneal erosion area at twelve hours intervals starting 24 hrs post wounding and up to 72 hr.
Rabbits were subjected to mechanical corneal wounding as described above. […]

Row | Substance | wound healing compared to control (Formula 1) (corneal wound in mice) | neutrophils recruitment to the corneal wound gap (corneal wound in mice) | pathological angiogenesis in corneal wound area (corneal wound in mice) | pathological corneal swelling (corneal wound in mice) | corneal re-epithelialization (wounds with full epidermal closure at 7 days post wounding) (corneal wound in mice) | inflammatory cells (lymphocytes) infiltration into the wound area (corneal wound in mice) | ICAM-1 expression on endothelial cells and keratinocytes [1] | activation of macrophages at inflammation site [1] | macrophages, neutrophiles and T-cells infiltration into inflammation site [1] | eyes completely healed without ocular scarring (full closure) at 48 hr post wounding ([2]; 48 hr, MPDY-1 0.1 or 0.5 μg/eye/treatment, two daily instillations, FIG. 11) | time within which all treated eyes reached full closure ([2]; post wounding, FIG. 11) | closure of ocular injury at 24 h post wounding ([2]; versus Control (standard of care ocular buffer), two daily instillations, FIG. 9)
1 | H-Pro-Tyr-Ile-Ala-Leu-Asn-Val-Asp-OH (H-PYIALNVD-OH) [EPIP-2] | wound healing enhancement | more potent in decreasing specific neutrophils recruitment | reduce angiogenesis in corneal wound gap | normalization in pathological corneal swelling | promote re-epithelialization of corneal wound | – | – | – | – | – | – | –
2 | H-Met-Arg-Ala-Ala-Glu-Ala-Ala-Ala-Ala-Glu-Pro-Met-OH (H-MRAAEAAAAEPM-OH) [DAP-1] | wound healing enhancement | more potent in decreasing specific neutrophils recruitment | reduce angiogenesis in corneal wound gap | – | promote re-epithelialization of corneal wound | excelled in reducing inflammatory cells infiltration into the wound area | – | – | – | – | – | –
3 | Myristoyl-Ser-Phe-Asn-Ser-Tyr-Glu-Leu-Gly-Ser-Leu-OH (Myristoyl-SFNSYELGSL-OH; SMILES CCCCCCCCCCCCCC(=O)N[C@@H](CO)C(=O)N[C@@H](Cc1ccccc1)C(=O)N[C@@H](CC(N)=O)C(=O)N[C@@H](CO)C(=O)N[C@@H](Cc1ccc(O)cc1)C(=O)N[C@@H](CCC(=O)O)C(=O)N[C@@H](CC(C)C)C(=O)NCC(=O)N[C@@H](CO)C(=O)N[C@@H](CC(C)C)C(=O)O) [DIP-1] | wound healing enhancement | – | reduce angiogenesis in corneal wound gap | normalization in pathological corneal swelling | more potent; also recorded: promote re-epithelialization of corneal wound | excelled in reducing inflammatory cells infiltration into the wound area | – | – | – | – | – | –
4 | MPDY-1: N-myristoylated peptide defined by SEQ ID NO: 2 (Phe-Ala-Arg-Lys-Gly-Ala-Leu-Arg-Gln), PKC-α inhibitor; tested in BSS (Myristoyl-FARKGALRQ) | – | – | – | – | – | – | attenuate ICAM-1 expression on endothelial cells and keratinocytes | attenuate activation of macrophages at inflammation site | inhibit macrophages, neutrophiles and T-cells infiltration into inflammation site | 30% | ≤ 72 h | 60%
